Holding throughout (type): functional, Cricetulus griseus
Holding throughout (details): Epithelial cell

Experiment [1] concerns Cricetinae gen. sp. Briefly: In vitro inhibitory activity tested for reverse keratinization of epithelial cells in hamster trachael organ assay at 10E-9 M concentration; (Activity culture/total culture 1/6).
In experiment [2] the test system is Cricetinae gen. sp. Put plainly: In vitro inhibitory activity tested for reverse keratinization of epithelial cells in hamster trachael organ assay at 10E-9 M concentration; (Activity culture/total culture 2/7).
Experiment [3] deals with Cricetinae gen. sp. Put plainly: In vitro inhibitory activity tested for reverse keratinization of epithelial cells in hamster trachael organ assay at 10E-9 M concentration; (Activity culture/total culture 1/7).
Experiment [4] deals with Cricetinae gen. sp. Briefly: In vitro inhibitory activity tested for reverse keratinization of epithelial cells in hamster trachael organ assay at 10E-9 M concentration; (Activity culture/total culture 419/474).

One may read the inhibition as the percentage by which the read-out fell short of the control. Read a low inhibition as a response near the control.

On to `CC1=C(/C=C/C(C)=C/C=C/C(C)=C/C(=O)Oc2ccc(O)c(C(C)(C)C)c2)C(C)(C)CCC1`, for which testing at 0.001 µM with Cricetinae gen. sp. [1] gave an inhibition of 16.7%.
`CCOc1ccc2c(c1)C(C)=CC(C)(C)N2C(=O)/C=C(C)/C=C/C=C(C)/C=C/C1=C(C)CCCC1(C)C` showed an inhibition at 0.001 µM in the experiment with Cricetinae gen. sp. [2] of 28.6%.
In the experiment with Cricetinae gen. sp. [1], `CC1=C(/C=C/C(C)=C/C=C/C(C)=C/C(=O)Oc2c(C)c(C)c3c(c2C)CC[C@@](C)(CCC[C@H](C)CCC[C@H](C)CCCC(C)C)O3)C(C)(C)CCC1` showed an inhibition at 0.001 µM of 16.7%.
In the experiment with Cricetinae gen. sp. [3], `CC1=C(/C=C/C(C)=C/C=C/C(C)=C/C(=O)Oc2ccc(O)cc2C(C)(C)C)C(C)(C)CCC1` registered an inhibition at 0.001 µM of 14.3%.
In the experiment on Cricetinae gen. sp. [4], `CC1=C(/C=C/C(C)=C/C=C/C(C)=C/C(=O)O)C(C)(C)CCC1` [TRETINOIN] had an inhibition at 0.001 µM of 88.4%.
